This note sets out measurements from patent US20230312587A1, “PTERIDINONE COMPOUNDS AND USES THEREOF” (Vertex Pharmaceutical Incorporated, priority 2018, published 2023).

Assay [1] relates to Colo205-TCF/LEF-Luciferase (Luc) tumor. The experiment in a line: In vivo inhibition of TCF/LEF reporter activity in Colo-205 tumors. Details: concentration or dose not given beside the values. The conditions noted are these: TCF/LEF luciferase reporter in Colo-205 tumors, nu/nu mice, oral gavage. An outline of the steps:
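Female nu/nu mice carried subcutaneous Colo205-TCF/LEF-luciferase tumours (200–500 mm^3), n=4 per group. Compound was given by oral gavage in 1:3:5:1 EtOH:DMSO:PEG-400:H2O at 10 ml/kg, with vehicle as control. Luciferase activity in tumour lysates (Steady-Glo) was normalised to BCA protein.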

The subject of the next assay is Hek293 empty vector. The assay can be described thus: In vitro cell viability (CellTiter-Glo), Hek293 empty vector. Type of assay: cell-based. How it is done:
HEK293 (ATCC, catalog #CRL-1573) cells are plated in 10 cm dishes (Corning, product #430167) into 10 mL of complete DMEM cell culture media [DMEM (Life Technologies, product #11960-051) media supplemented with 10% FBS (Hyclone, catalog #SH30071.03), antimycotic/antibiotic (Life Technologies, product #15240-062), and Glutamax (Life Technologies, product #35050-061)] at 3×10^6 cells per dish. Cells are allowed to attach and grow overnight at 37° C. in humidified 5% CO2. Cells are co-transfected with pVSV-G, pCMV-Gag/Pol and pCLPCX_WFS1 using Fugene 6 (Promega, catalog #E2691) according to manufacturer's protocol. Separately, cells are co-transfected with pVSV-G, pCMV-Gag/Pol and pCLPCX to produce control retrovirus. Cell culture media containing retrovirus (viral supernatant) is collected at 48 and 72 hours following transfection, filtered through a 0.4 uM filter, and stored at −80° C.
HEK293 cells are plated in 6 well plates (Corning, product #3516) in 2 mL of complete DMEM cell culture media at 1×10^5 cells well and allowed to attach and grow overnight at 37° C. in humidified 5% CO2. The following day, the media is replaced with viral supernatant to which 10 ug/ml of Polybrene® (Santa Cruz Biotech, catalog #sc-134220) is added. Viral supernatant is replaced 24 hours later with complete DMEM media. Transduced cells are selected in complete DMEM cell culture media containing 1 microgram/mL of puromycin (Life Technologies, catalog #A1113803).
HEK293 cells containing empty pCLPCx vector (HEK293 empty), HEK293 cells stably over-expression WFS1 (HEK293 WFS1), HepG2, and HepG2 cells where WFS1 was depleted via CRISPR/Cas9 (HepG2 WFS1 KO) cells were plated into 96-well black plates (Corning, product #3904) in 100 microliters of complete DMEM cell culture media [DMEM (Life Technologies, product #11960-051) media supplemented with 10% FBS (Hyclone, catalog #SH30071.03), antimycotic/antibiotic (Life Technologies, product #15240-062), and Glutamax (Life Technologies, product #35050-061)] at 1,000 (HEK293) or 5,000 (HepG2) cells per well. Cells were allowed to attach and grow overnight, after which compounds are added at various concentrations. Cell viability was assessed 96 hrs after compound addition with CellTiter-Glo reagent (Promega, catalog #G7570) according to manufacturer's protocol and measurement on a Pherastar luminescence plate reader (BMG Labtech).
The IC50s for the viability of both the Hek293 empty vector and WFS1 over-expressing cells are summarized in Table 47: A<0.06 μM; 0.06 μM≤B<0.6 μM; 0.6 μM≤C<3.0 μM; D≥3.0 μM.

Setting [2] is: Homo sapiens, HEK293, read-out: Hek293 empty vector viability.

Molecules are shown by their SMILES. Like-named read-outs stand apart in the source and are kept apart here.

Take `Cc1nc(NCc2cnn(Cc3ccnc(C(F)(F)F)c3)c2)nc2c1NC(=O)[C@H](C)N2C` [Compound 207, (7S)-4,7,8-trimethyl-2-(((1-((2-(trifluoromethyl)pyridin-4-yl)methyl)-1H-pyrazol-4-yl)methyl)amino)-7,8-dihydropteridin-6(5H)-one]: the “Percent Remaining Activity at 8 hrs after Dosing” value (shortened to “Percent Remaining Activity”) in assay [1] was determined as 18%. The IC50 with Hek293 empty vector (setting [2]) was no less than 3000 nM.
The like results for `Cc1nc(NCc2cnn(Cc3cc(C(F)(F)F)nn3C)c2)nc2c1NC(=O)[C@H](C1CC1)N2C` [Compound 396, (7S)-7-Cyclopropyl-4,8-dimethyl-2-(((1-((1-methyl-3-(trifluoromethyl)-1H-pyrazol-5-yl)methyl)-1H-pyrazol-4-yl)methyl)amino)-7,8-dihydropteridin-6(5H)-one] were, in that order, 23% and no less than 3000 nM.
In the case of `Cc1nc(N[C@H]2C[C@H](Oc3cc(F)c(F)c(F)c3)C2)nc2c1N(C)C(=O)[C@H](C)N2C` [Compound 253, (7S)-4,5,7,8-tetramethyl-2-((trans-3-(3,4,5-trifluorophenoxy)cyclobutyl)amino)-7,8-dihydropteridin-6(5H)-one], the “Percent Remaining Activity” value in assay [1] came to 15%. The IC50 with Hek293 empty vector (setting [2]) is no less than 3000 nM; in the assay on Hek293 empty vector (Homo sapiens, cell viability, Hek293 empty vector, read-out: IC50), 15000 nM; in the assay on Hek293 empty vector (Homo sapiens, cell viability, Hek293 empty vector, read-out: IC50 class) it was no less than 3000 nM.
On to `Cc1nc(C(F)(F)F)ccc1Cn1cc(CNc2nc(C)c3c(n2)N(C)[C@@H](C)C(=O)N3)cn1` [Compound 188, (S)-4,7,8-trimethyl-2-(((1-((2-methyl-6-(trifluoromethyl)pyridin-3-yl)methyl)-1H-pyrazol-4-yl)methyl)amino)-7,8-dihydropteridin-6(5H)-one], for which the “Percent Remaining Activity” value in assay [1] stood at 15%. Moreover, the IC50 in the assay on Hek293 empty vector (setting [2]) was no less than 3000 nM.
For `Cc1nc(NCc2cnn(Cc3ccc(Cl)nc3)c2)nc2c1NC(=O)[C@H](C(C)C)N2C` [Compound 409, (7S)-2-(((1-((6-chloropyridin-3-yl)methyl)-1H-pyrazol-4-yl)methyl)amino)-7-isopropyl-4,8-dimethyl-7,8-dihydropteridin-6(5H)-one], in that order: 27% and no less than 3000 nM.
The like results for `Cc1nc(N[C@H]2C[C@@H](Sc3cc(F)c(F)c(F)c3)C2)nc2c1NC(=O)[C@H](C)N2C` [Compound 332, (7S)-4,7,8-trimethyl-2-((cis-3-((3,4,5-trifluorophenyl)thio)cyclobutyl)amino)-7,8-dihydropteridin-6(5H)-one] were, in that order, 51% and no less than 3000 nM.
The like results for `Cc1nc(NCc2cnn(Cc3cc(C(F)(F)F)nn3C)c2)nc2c1NC(=O)[C@H](C)N2C` [Compound 160, (7S)-4,7,8-trimethyl-2-(((1-((1-methyl-3-(trifluoromethyl)-1H-pyrazol-5-yl)methyl)-1H-pyrazol-4-yl)methyl)amino)-7,8-dihydropteridin-6(5H)-one] were, in that order, 18% and no less than 3000 nM.
`Cc1nc(NCc2cnn(Cc3cccc(C(C)C)c3)c2)nc2c1NC(=O)[C@H](C)N2C` [Compound 80, (7S)-2-(((1-(3-isopropylbenzyl)-1H-pyrazol-4-yl)methyl)amino)-4,7,8-trimethyl-7,8-dihydropteridin-6(5H)-one]: the “Percent Remaining Activity” value in assay [1] came out at 34%. In addition, in the assay on Hek293 empty vector (setting [2]), the IC50 is no less than 3000 nM.
Regarding `Cc1nc(NCc2cnn(Cc3ccc(F)nc3)c2)nc2c1NC(=O)[C@H](C1CC1)N2C` [Compound 421, (7S)-7-cyclopropyl-2-(((1-((6-fluoropyridin-3-yl)methyl)-1H-pyrazol-4-yl)methyl)amino)-4,8-dimethyl-7,8-dihydropteridin-6(511)-one], in assay [1], the “Percent Remaining Activity” value turned out to be 23%. In the assay with Hek293 empty vector (Hek293 empty vector, read-out: Hek293 empty vector viability), the IC50 was no less than 3000 nM.
For the compound `Cc1nc(N[C@@H]2CC[C@@H](Oc3cc(F)c(F)c(F)c3)C2)nc2c1N(C)C(=O)[C@H](C)N2C` [Compound 272, (S)-4,5,7,8-tetramethyl-2-(((1R,3R)-3-(3,4,5-trifluorophenoxy)cyclopentyl)amino)-7,8-dihydropteridin-6(5H)-one], the “Percent Remaining Activity” value in assay [1] stood at 14%. In the assay on Hek293 empty vector (setting [2]), the IC50 was no less than 3000 nM.
The like results for `Cc1nc(NCc2cnn(Cc3ccc(F)nc3)c2)nc2c1NC(=O)[C@H](C)N2C` [Compound 77] were, in that order, 30% and no less than 3000 nM.
Regarding `Cc1cc(F)ncc1Cn1cc(CNc2nc(C)c3c(n2)N(C)[C@@H](C(C)C)C(=O)N3)cn1` [Compound 423, (7S)-2-(((1-((6-fluoro-4-methylpyridin-3-yl)methyl)-1H-pyrazol-4-yl)methyl)amino)-7-isopropyl-4,8-dimethyl-7,8-dihydropteridin-6(5H)-one], the “Percent Remaining Activity” value in assay [1] worked out at 70%. Also, the IC50 with Hek293 empty vector (setting [2]) was no less than 3000 nM.
As to `COc1c(F)cc(Cn2cc(CNc3nc(C)c4c(n3)N(C)[C@@H](C)C(=O)N4)cn2)cc1F` [Compound 46, (7S)-2-(((1-(3,5-difluoro-4-methoxybenzyl)-1H-pyrazol-4-yl)methyl)amino)-4,7,8-trimethyl-7,8-dihydropteridin-6(5H)-one], the “Percent Remaining Activity” value in assay [1] worked out at 20%. The IC50 with Hek293 empty vector (setting [2]) is no less than 3000 nM.
Regarding `Cc1nc(NCc2cnn(Cc3cc(F)c(F)c(F)c3)c2)nc2c1NC(=O)[C@H](C)N2C` [Compound 122, (7S)-4,7,8-trimethyl-2-(((1-(3,4,5-trifluorobenzyl)-1H-pyrazol-4-yl)methyl)amino)-7,8-dihydropteridin-6(5H)-one], the “Percent Remaining Activity” value in assay [1] came out at 16%. For the same compound, the IC50 with Hek293 empty vector (setting [2]) is no less than 3000 nM.
For `Cc1nc(NCc2cnn(Cc3ccc(C(F)(F)F)nc3C(C)C)c2)nc2c1NC(=O)[C@H](C)N2C` [Compound 388, (7S)-2-(((1-((2-isopropyl-6-(trifluoromethyl)pyridin-3-yl)methyl)-1H-pyrazol-4-yl)methyl)amino)-4,7,8-trimethyl-7,8-dihydropteridin-6(5H)-one], in assay [1], the “Percent Remaining Activity” value was 13%. Besides, the IC50 in the assay with Hek293 empty vector (setting [2]) was no less than 3000 nM.
For `Cc1nc(NCc2cnn(Cc3ccc(F)nc3)c2)nc2c1NC(=O)[C@H](C(C)C)N2C` [Compound 384, (7S)-2-(((1-((6-fluoropyridin-3-yl)methyl)-1H-pyrazol-4-yl)methyl)amino)-7-isopropyl-4,8-dimethyl-7,8-dihydropteridin-6(5H)-one], in that order: 14% and no less than 3000 nM.
The like results for `Cc1nc(NCc2cnn(Cc3ccc(C(F)(F)F)nc3)c2)nc2c1NC(=O)C1(CCC1)N2C` [Compound 398, 4′,8′-dimethyl-2′-(((1-((6-(trifluoromethyl)pyridin-3-yl)methyl)-1H-pyrazol-4-yl)methyl)amino)-5′,8′-dihydro-6′H-spiro[cyclobutane-1,7′-pteridin]-6′-one] were, in that order, 83% and no less than 3000 nM.
For `Cc1nc(NCc2cnn(Cc3ccc(C(F)(F)F)nc3)c2)nc2c1NC(=O)[C@H](C(C)C)N2C` [Compound 383, (7S)-7-isopropyl-4,8-dimethyl-2-(((1-((6-(trifluoromethyl)pyridin-3-yl)methyl)-1H-pyrazol-4-yl)methyl)amino)-7,8-dihydropteridin-6(5H)-one], in that order: 36% and no less than 3000 nM.
As for `Cc1nc(N[C@H]2C[C@H](Oc3cc(F)c(F)c(F)c3)C2)nc2c1NC(=O)[C@H](C)N2C` [Compound 246, (7S)-4,7,8-trimethyl-2-((trans-3-(3,4,5-trifluorophenoxy)cyclobutyl)amino)-7,8-dihydropteridin-6(5H)-one], the “Percent Remaining Activity” value in assay [1] came out at 18%. In addition, the IC50 in the assay on Hek293 empty vector (setting [2]) was no less than 3000 nM.
